Patent US20090181952A1 (Wyeth, priority 2008, published 2009)
Read-outs that look alike come from different tables or passages of the source.

What was measured:
[1] = molecular target: T1, rat-alpha7-nAChR (Rattus norvegicus, UniProt Q05941); assay: functional FLIPR assay, alpha7 nAChR stably expressed in GH4C1 cells; assay type: cell-based
T1 construct: expressed in transfected cells
Source text: Rat GH4C1 cells were then transfected with the rat receptor, cloned and analyzed for functional alpha7 nicotinic receptor expression employing a FLIPR assay to measure changes in intracellular calcium concentrations.
The FLIPR system allows the measurements of real time Ca^2+-concentration changes in living cells using a Ca^2+ sensitive fluorescence dye (such as Fluo4). This instrument enables the screening for agonists and antagonists for alpha 7 nAChR channels stably expressed in GH4C1 cells.
GH4C1 cells stably transfected with rat-alpha7-nAChR (see above) were used. These cells are poorly adherent and therefore pretreatment of flasks and plates with poly-D-lysine was carried out. Cells are grown in 150 cm^2 T-flasks, filled with 30 ml of medium at 37° C. and 5% CO2.
EC50 and IC50 values were calculated using the IDBS XLfit4.1 software package employing a sigmoidal concentration-response (variable slope) equation:

[2] = metabolite profile in dog plasma by LC/MS; assay type: in vivo; settings: dog plasma after single […] IV or 7.6 mg/kg PO dose of parent
Experimental: (§1) Rat plasma samples from single 6.7 mg/kg IV at 0, 10 min and 20.5 mg/kg IV at 0, 0.5, 4 hr post dosing; dog plasma samples from single 1.5 mg/kg IV at 0, 0.167, 1, 6 hr and 7.6 mg/kg PO at 0, 0.5, 2, 6 hr post dosing were analyzed by LC/MS. A standard of the parent compound was analyzed by LC/MS and there was no impurity detected.

[3] = metabolite profile in rat plasma by LC/MS; assay type: in vivo; settings: rat plasma after single 6.7 or 20.5 mg/kg IV dose of parent
Experimental: as §1
In rat plasma, a compound of formula I was the predominant compound-related material while metabolites were detected at very low levels. […] (See FIGS. 1 and 2; for compound I′ n=1, R^1=methyl, and R^2═H)

[4] = functional FLIPR primary screening assay, GH4C1 cell line expressing α7 nAChR, read-out: Alpha7 EC50

T1 sequence (Q05941 23-502): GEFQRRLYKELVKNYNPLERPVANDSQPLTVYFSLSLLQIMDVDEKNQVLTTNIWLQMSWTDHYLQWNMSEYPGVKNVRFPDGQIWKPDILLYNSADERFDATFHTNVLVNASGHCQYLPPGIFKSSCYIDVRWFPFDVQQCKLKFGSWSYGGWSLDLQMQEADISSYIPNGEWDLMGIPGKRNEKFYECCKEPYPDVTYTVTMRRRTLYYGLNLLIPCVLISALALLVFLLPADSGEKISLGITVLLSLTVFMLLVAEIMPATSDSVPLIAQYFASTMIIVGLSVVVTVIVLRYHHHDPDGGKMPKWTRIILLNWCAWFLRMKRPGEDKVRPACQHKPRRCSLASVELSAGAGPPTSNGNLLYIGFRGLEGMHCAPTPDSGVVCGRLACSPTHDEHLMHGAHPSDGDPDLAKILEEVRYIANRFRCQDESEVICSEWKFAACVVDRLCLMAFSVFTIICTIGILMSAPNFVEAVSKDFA

SMILES	EC50 [1, 4]	compound-related material detected in rat plasma [3]	further results
CC(=O)N1CCCC(CCCCC(=O)Nc2cc(-c3ccc(O)cc3)[nH]n2)CC1 (stereo not drawn)	1 µM	–	–
COc1ccc(C2CC(NC(=O)CCCCN3CCCNCC3)NN2)cc1 (stereo not drawn)	6.9 µM	–	–
CC(=O)N1CCCN(CCCCC(=O)Nc2cc(-c3ccc(O)cc3)n[nH]2)CC1 [Compound I-1]	–	detected as metabolites	compound-related material detected in dog plasma [2]: very minor metabolite
CC(=O)N1CCCN(CCCCC(=O)Nc2cc(-c3ccc(OS(=O)(=O)O)cc3)[nH]n2)CC1 [Compound I-2]	–	detected as metabolites	–
C[N+]1(C)CCN(c2ccccc2)CC1 [DMPP, reference compound]	–	–	EC50 ([1]; alpha7 nAChR stably expressed in GH4C1 cells, functional FLIPR assay, agonist validation, read-out: EC50): 0.98 ± 0.47 µM
